Measurements published in article PMC8936051 (Journal of medicinal chemistry, 2022).
Read-outs that look alike come from different tables or passages of the source. Peptide text beside a SMILES is read from it. * marks the point of attachment. Cbz = O=C(OCc1ccccc1)*; CH2F = FC*

Legend:
[1] = test system: SARS-CoV-2 PP entry into HEK293-ACE2 cells; assay: microbe, parasite or virus in culture; format: cell-based
SARS-CoV-2 live virus = assay: microbe, parasite or virus in culture; format: cell-based
SARS-CoV-2 3CL protease [2] = biological target: T1, SARS-CoV-2 3CL protease (Severe acute respiratory syndrome coronavirus 2, UniProt P0DTD1); format: biochemical; details: read-out: IC50, 3CL protease assay
SARS-CoV-2 3CL protease [3] = biological target: T1, SARS-CoV-2 3CL protease; details: read-out: IC50, 3CL protease; finding of Sun et al.; cited from earlier work
[4] = Severe acute respiratory syndrome coronavirus 2, read-out: IC50, PP entry assay
[5] = Severe acute respiratory syndrome coronavirus 2, read-out: AC50 (potency), CPE assay
[6] = read-out: AC50 (potency), CPE assay

Compound	efficacy, PP entry assay [1]	IC50 [1, 4]	AC50 (SARS-CoV-2 live virus; [6])	also measured
CCN(CC)Cc1cc(Nc2ccnc3cc(Cl)ccc23)ccc1O [NCGC00017063, Amodiaquine]	103%	19 µM		AC50 (SARS-CoV-2 live virus; [5]): 4.14 ± 1.41 µM
COc1ccc2cc1Oc1ccc(cc1)C[C@H]1c3c(cc4c(c3Oc3cc5c(cc3OC)CCN(C)[C@@H]5C2)OCO4)CCN1C [NCGC00161621, Cepharanthine]	102%	6.88 µM		AC50 (SARS-CoV-2 live virus; [5]): 1.41 ± 0.39 µM
CCN(CC)CCCCNc1nc2cc(Cl)c(Cl)cc2nc1-c1ccc(-c2cccs2)s1 [NCGC00263128, PD 0220245]			< 5 µM	
O=C(NCc1ccccc1)[C@H](Cc1ccccc1)NC(=O)[C@H]1O[C@@H]1C(=O)NCCc1ccc(O)cc1 [NCGC00345807, CAA-0225]	89%		0.2 ± 0.07 µM	IC50 ([1]; read-out: IC50, PP entry assay): 0.6 µM
C=C(c1ccc(C(=O)O)c(F)c1)c1cc2c(cc1C)C(C)(C)CCC2(C)C [NCGC00371011, Fluorobexarotene]				IC50 (SARS-CoV-2 3CL protease [2]): 28.9 ± 2.35 µM
Nc1nc(Nc2ccc3c(c2)CC[C@@H](N2CCCC2)CC3)nn1-c1cc2c(nn1)-c1ccccc1CCC2 [NCGC00386665, Bemcentinib]	112%	19 µM		AC50 (SARS-CoV-2 live virus; [5]): 3.36 µM
COC(=O)C[C@H](NC(=O)[C@H](CCSC)NC(=O)[C@H](CCC(N)=O)NC(=O)[C@H](CC(=O)OC)NC(=O)OCc1ccccc1)C(=O)CF [NCGC00390337, Z-DQMD-FMK] (Cbz-D(OMe)QMD(OMe)-CH2F)				IC50 (SARS-CoV-2 3CL protease [2]): 0.92 µM; IC50 (SARS-CoV-2 3CL protease [3]): 0.94 µM
CC[C@@]1(O)C(=O)OCc2c1cc1n(c2=O)Cc2c-1nc1cc(F)c(C)c3c1c2[C@@H](N)CC3 [NCGC00390584, Exatecan]		0.0031 µM		
COc1ccc(C(C)(C)C)cc1CN[C@H]1C2CCN(CC2)[C@H]1C(c1ccccc1)c1ccccc1 [NCGC00390625, Maropitant]			3.55 ± 1.12 µM	
COc1ccc(-c2cc3c(nc2-c2ccccc2)nc(C(=O)NCCN(C)C)n3C)cn1 [NCGC00417833]			22 µM	
OC(c1cc(-c2ccc(Cl)cc2)nc2ccccc12)C1CCCCN1 (centres unmarked) [NCGC00482724, Vacquinol-1]			< 5 µM	
CCCc1cc(C)[nH]c(=O)c1CNC(=O)c1cc(-c2ccc(N3CCN(C)CC3)nc2)nc2c1cnn2C(C)C [NCGC00590975, JQEZ5]			< 5 µM	
CCN(CC)CCCNc1ccnc2cc(Cl)ccc12 [NCGC00599688, AQ-13]			3.98 µM	IC50 ([1]; read-out: IC50, PP entry assay): 14.2 ± 11.7 µM
